We go through two molecules from patent US7186709B2, “Dihydropyrancarboxamides and uses thereof” (President and Fellows of Harvard College, priority 2002, dated 2007).

Experiment [1] concerns the target T1, human Eg5 (Homo sapiens, UniProt P52732).
T1 construct: 1 μM microtubules and 40 nM Eg5-367H; His6 (C); made in house; host or cells: pRSETa backbone
T1 sequence (P52732 1-367): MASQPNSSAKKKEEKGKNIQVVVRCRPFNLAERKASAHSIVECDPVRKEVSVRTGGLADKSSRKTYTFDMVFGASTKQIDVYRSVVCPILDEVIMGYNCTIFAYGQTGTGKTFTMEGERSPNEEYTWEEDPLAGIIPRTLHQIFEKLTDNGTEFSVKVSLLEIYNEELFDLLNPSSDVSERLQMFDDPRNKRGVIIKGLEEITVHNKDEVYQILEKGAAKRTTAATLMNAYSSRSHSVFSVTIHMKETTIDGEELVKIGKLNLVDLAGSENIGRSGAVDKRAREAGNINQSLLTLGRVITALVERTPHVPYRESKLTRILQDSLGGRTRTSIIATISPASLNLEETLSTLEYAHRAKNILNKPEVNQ
The experiment in a line: steady-state Eg5 ATPase assay (NADH-coupled). It counts as biochemical. Particulars: library screen. An excerpt: Coding regions for the expression of C-terminally His6-tagged constructs of human Eg5 were generated by polymerase chain reaction using a pBluescript template containing full length human Eg5 [23] and the following primers: a common N-terminal primer 5′-[…] and specific C-teminal primers; 5′-[…] (hEg5–367H), 5′-[…] (hEg5–405H), 5′-[…] (hEg5–437H). The PCR products were ligated into a pRSETa backbone. Eg5 protein constructs were expressed and purified as described previously [Woehike, G., Ruby, A. K., Hart, C. L., Ly, B., Hom-Booher, N. and Vale, R. D. (1997) Microtubule interaction site of the kinesin motor. Cell. 90, 207–216]. […] The concentration of Eg5 was measured using the Edelhoch [Pace, C. […]
We measured the ATPase activity of Eg5 in vitro using an assay that couples the hydrolysis of ATP to the oxidation of NADH [Woehike, G., Ruby, A. K., Hart, C. […] In the assay, the concentration of ATP remains constant however, the decrease in NADH fluorescence is a convenient measure of the amount of ATP turned over. […] Time-points for NADH fluorescence were measured in 384 well black plates (NalgeneNUNC) by a Wallac Victor^2 1420 multilabel counter, umbelliferone filter set (excitation: 355 nm, emission: 420 nm), and the steady-state rate of fluorescence decay was calculated using a linear fit by Microsoft Excel. […]

Experiment [2] concerns human A549 lung carcinoma cells. The experiment in a line: genistein suppressor screen (BrdU cytoblot with 100 μM genistein challenge). The experiment is classed as cell-based. The conditions noted are these: A549 cells challenged with 100 μM genistein. How it is done:
Both plates of stock solutions (10) were used in phenotypic assays. In particular, we exposed living human A549 lung carcinoma cells to 708 (324+384) stock solutions under two different assay conditions. These experiments were performed with a hand-held pin-transfer tool, though our complete technology platform includes a pin-transfer robot capable of mapping into multiple microtiter plates. In certain embodiments, cultured cells exposed to 5-bromodeoxyuridine (BrdU) will incorporate this base analog into their DNA when actively dividing, and this incorporation can be detected by cytoblot assay using antibodies directed against BrdU (B. R. Stockwell, S. J. Haggarty, S. L. Schreiber, High-throughput screening of small molecules in miniaturized mammalian cell-based assays involving post-translational modifications, Chem. Biol. 6 (1999) 71–83). […] Thus, ‘hits’ in the former assay are detected as a loss of signal in a high-signal array (FIG. 14(a)), while ‘hits’ in the latter assay are detected as a gain of signal in a lowsignal array (FIG. 14(b)). […]
For each of these assays, aliquots from each of the two plates (10) were exposed to cells in duplicate to ensure the fidelity of the results. Compounds were scored as ‘hits’ only if they scored strongly in both replicates of a given experiment. […]

With `CCO[C@H]1OC(C(=O)NCc2ccc(F)cc2)=C[C@@H](c2ccccc2)[C@H]1CCCO`, in experiment [1], the Eg5 inhibitory activity entry is “found to inhibit Eg5”.
Turning to `O=c1c(-c2ccc(O)cc2)coc2cc(O)cc(O)c12` [genistein, 4′,5,7 trihydroxyisoflavone], the “BrdU incorporation judged by cytoblot assay” value in experiment [2] is reported as “impaired”.
